Results: patent US10550105B2 (Ribon Therapeutics Inc., priority 2018, dated 2020)

Experiments:
Caki-1 = experiment: Growth inhibition of cancer cell lines, 72 hrs (CellTiter-Glo); format: cell-based; conditions: Homo sapiens, kidney, clear cell renal cell carcinoma
Procedure: (§1) Example C: Inhibition of Cancer Cell Growth by Treatment with PARP7 Inhibitors
(§2) Table A-2 and Table A-3 (below) represents the concentration that causes 50% growth inhibition (GI50) in a panel of cancer cell lines with Compound 18B and Compound 561. Cells were plated into 384-well plates at a pre-specified density in fetal bovine serum-containing media. Cells were treated with compound or vehicle (DMSO) 24 hrs later, and a day zero plate was collected for analysis. Test compound plates were incubated continuously for 72 hrs (Table A-2) or 144 hours (Table A-3) cell growth was assessed using a luminescent cell viability assay (CellTiter-Glo, Promega). The GI50was determined by correcting for the cell count at time zero (time of treatment) and plotting data as percent growth relative to vehicle-treated cells.

HDQ-P1 = experiment: as above; format: cell-based; conditions: Homo sapiens, breast, ductal carcinoma
Procedure: as §1, §2

NCI-H441 = experiment: as above; format: cell-based; conditions: Homo sapiens, lung, adenocarcinoma
Procedure: as §1, §2

Panc 03.27 = experiment: as above; format: cell-based; conditions: Homo sapiens, PANC-03-27, pancreas, ductal carcinoma
Procedure: as §1, §2

EN = experiment: as above; format: cell-based; conditions: endometrium, not specified
Procedure: as §1, §2

COLO-680N = experiment: as above; format: cell-based; conditions: Homo sapiens, oesophagus, squamous cell carcinoma
Procedure: as §1, §2

HCC1599 = experiment: as above; format: cell-based; conditions: Homo sapiens, breast, ductal carcinoma
Procedure: as §1, §2

MDA-MB-468 = experiment: as above; format: cell-based; conditions: Homo sapiens, breast, not specified
Procedure: as §1, §2

TUHR10TKB = experiment: as above; format: cell-based; conditions: kidney, not specified
Procedure: as §1, §2

Hs 578T = experiment: as above; format: cell-based; conditions: Homo sapiens, breast, ductal carcinoma
Procedure: as §1, §2

HCC-1195 = experiment: as above; format: cell-based; conditions: lung, mixed adenosquamous carcinoma
Procedure: as §1, §2

SW 900 = experiment: as above; format: cell-based; conditions: Homo sapiens, SW900, lung, squamous cell carcinoma
Procedure: as §1, §2

NCI-H1963 = experiment: as above; format: cell-based; conditions: Homo sapiens, lung, small cell carcinoma
Procedure: as §1, §2

GSU = experiment: as above; format: cell-based; conditions: stomach, adenocarcinoma
Procedure: as §1, §2

NCI-H596 = experiment: as above; format: cell-based; conditions: Homo sapiens, lung, mixed adenosquamous carcinoma
Procedure: as §1, §2

NCI-H2066 = experiment: as above; format: cell-based; conditions: lung, small cell carcinoma
Procedure: as §1, §2

OVISE = experiment: as above; format: cell-based; conditions: ovary, clear cell carcinoma
Procedure: as §1, §2

FaDu = experiment: as above; format: cell-based; conditions: Homo sapiens, upper aerodigestive tract, squamous cell carcinoma
Procedure: as §1, §2

SCC-25 = experiment: as above; format: cell-based; conditions: Homo sapiens, upper aerodigestive tract, squamous cell carcinoma
Procedure: as §1, §2

COR-L105 = experiment: as above; format: cell-based; conditions: Homo sapiens, lung, adenocarcinoma
Procedure: as §1, §2

KMRC-3 = experiment: as above; format: cell-based; conditions: kidney, clear cell renal cell carcinoma
Procedure: as §1, §2

KMBC-2 = experiment: as above; format: cell-based; conditions: urinary tract, not specified
Procedure: as §1, §2

YD-10B = experiment: as above; format: cell-based; conditions: upper aerodigestive tract, squamous cell carcinoma
Procedure: as §1, §2

HCC1187 = experiment: as above; format: cell-based; conditions: Homo sapiens, breast, ductal carcinoma
Procedure: as §1, §2

T3M-10 = experiment: as above; format: cell-based; conditions: lung, large cell carcinoma
Procedure: as §1, §2

SW620 = experiment: as above; format: cell-based; conditions: Homo sapiens, SW-620, large intestine, adenocarcinoma
Procedure: as §1, §2

NCI-H1975 = experiment: as above; format: cell-based; conditions: Homo sapiens, lung, non small cell carcinoma
Procedure: as §1, §2

NCI-H1930 = experiment: as above; format: cell-based; conditions: Homo sapiens, lung, small cell carcinoma
Procedure: as §1, §2

SK-BR-3 = experiment: as above; format: cell-based; conditions: Homo sapiens, breast, not specified
Procedure: as §1, §2

GSS = experiment: as above; format: cell-based; conditions: stomach, adenocarcinoma
Procedure: as §1, §2

JHOS-2 = experiment: as above; format: cell-based; conditions: ovary, adenocarcinoma
Procedure: as §1, §2

CAL 27 = experiment: as above; format: cell-based; conditions: Homo sapiens, upper aerodigestive tract, squamous cell carcinoma
Procedure: as §1, §2

NCI-H1437 = experiment: as above; format: cell-based; conditions: Homo sapiens, lung, adenocarcinoma
Procedure: as §1, §2

EFE-184 = experiment: as above; format: cell-based; conditions: Homo sapiens, endometrium, not specified
Procedure: as §1, §2

SNU-719 = experiment: as above; format: cell-based; conditions: stomach, not specified
Procedure: as §1, §2

NCI-H2347 = experiment: as above; format: cell-based; conditions: Homo sapiens, lung, adenocarcinoma
Procedure: as §1, §2

NCI-H2228 = experiment: as above; format: cell-based; conditions: Homo sapiens, lung, adenocarcinoma
Procedure: as §1, §2

LXF-289 = experiment: as above; format: cell-based; conditions: Homo sapiens, lung, adenocarcinoma
Procedure: as §1, §2

IA-LM = experiment: as above; format: cell-based; conditions: lung, large cell carcinoma
Procedure: as §1, §2

TE-8 = experiment: as above; format: cell-based; conditions: Homo sapiens, oesophagus, squamous cell carcinoma
Procedure: as §1, §2

interferon-beta (IFN-β) [1] = experiment: Induction of interferon-beta levels in RAW264.7 macrophages in the presence of STING agonist DMXAA (FIG. 3); format: cell-based; conditions: RAW264.7 mouse macrophages
interferon-beta (IFN-β) [2] = experiment: Induction of interferon-beta levels in CT26 cells in the presence of STING agonist DMXAA (FIG. 3); format: cell-based; conditions: CT26 mouse colon cancer cells
LN-18 = experiment: Growth inhibition of cancer cell lines, 144 hours (CellTiter-Glo); format: cell-based; conditions: Homo sapiens, glioblastoma
Procedure: as §1, §2

SNU-840 = experiment: as above; format: cell-based; conditions: malignant ovarian Brenner tumor
Procedure: as §1, §2

[3] = test system: CT26 colon cancer syngeneic model; experiment: Tumor growth in the murine syngeneic model CT26 (FIG. 6A-C, 7B); format: in vivo, mouse; conditions: once or twice daily administration, FIG. 7B

Which GI50 (Caki-1) does the source give for N#Cc1ccc(N2CCN(C(=O)c3cccc(OC[C@@H]4c5ccccc5CN4c4cn[nH]c(=O)c4C(F)(F)F)c3)CC2)nc1 (single isomer, unassigned) [Example 18 Isomer B] here?
The GI50 was under 100 nM.

What about the GI50 (HDQ-P1) of the same compound?
Its GI50 is 100 to 1000 nM.

And the GI50 (NCI-H441)?
The GI50 was 100 to 1000 nM.

What about the GI50 (Panc 03.27) of the same compound?
The GI50 was under 100 nM.

And the GI50 (EN)?
The GI50 was 100 to 1000 nM.

And the GI50 (COLO-680N)?
Its GI50 is under 100 nM.

And the GI50 (HCC1599)?
Its GI50 is 100 to 1000 nM.

What about the GI50 (MDA-MB-468) of the same compound?
Its GI50 is under 100 nM.

And the GI50 (TUHR10TKB)?
Its GI50 is under 100 nM.

What about the GI50 (Hs 578T) of the same compound?
The GI50 was 100 to 1000 nM.

What about the GI50 (HCC-1195) of the same compound?
Its GI50 is 100 to 1000 nM.

And the GI50 (SW 900)?
Its GI50 is under 100 nM.

And the GI50 (NCI-H1963)?
Its GI50 is under 100 nM.

And the GI50 (GSU)?
The GI50 was under 100 nM.

And the GI50 (NCI-H596)?
The GI50 was under 100 nM.

And the GI50 (NCI-H2066)?
Its GI50 is 100 to 1000 nM.

What about the GI50 (OVISE) of the same compound?
The GI50 was 100 to 1000 nM.

What about the GI50 (FaDu) of the same compound?
The GI50 was 100 to 1000 nM.

What about the GI50 (SCC-25) of the same compound?
Its GI50 is under 100 nM.

And the GI50 (COR-L105)?
Its GI50 is 100 to 1000 nM.

What about the GI50 (KMRC-3) of the same compound?
Its GI50 is 100 to 1000 nM.

What about the GI50 (KMBC-2) of the same compound?
Its GI50 is 100 to 1000 nM.

What about the GI50 (YD-10B) of the same compound?
Its GI50 is under 100 nM.

What about the GI50 (HCC1187) of the same compound?
Its GI50 is 100 to 1000 nM.

What about the GI50 (T3M-10) of the same compound?
The GI50 was under 100 nM.

And the GI50 (SW620)?
The GI50 was 100 to 1000 nM.

What about the GI50 (NCI-H1975) of the same compound?
The GI50 was 100 to 1000 nM.

What about the GI50 (NCI-H1930) of the same compound?
The GI50 was under 100 nM.

What about the GI50 (SK-BR-3) of the same compound?
The GI50 was 100 to 1000 nM.

What about the GI50 (GSS) of the same compound?
The GI50 was 100 to 1000 nM.

And the GI50 (JHOS-2)?
The GI50 was under 100 nM.

What about the GI50 (CAL 27) of the same compound?
Its GI50 is under 100 nM.

And the GI50 (NCI-H1437)?
Its GI50 is under 100 nM.

And the GI50 (EFE-184)?
Its GI50 is under 100 nM.

And the GI50 (SNU-719)?
Its GI50 is 100 to 1000 nM.

And the GI50 (NCI-H2347)?
Its GI50 is under 100 nM.

What about the GI50 (NCI-H2228) of the same compound?
Its GI50 is 100 to 1000 nM.

What about the GI50 (LXF-289) of the same compound?
The GI50 was 100 to 1000 nM.

What about the GI50 (IA-LM) of the same compound?
The GI50 was under 100 nM.

What about the GI50 (TE-8) of the same compound?
The GI50 was under 100 nM.

What about the “interferon-beta (IFN-β) levels” value (interferon-beta (IFN-β) [1]) of the same compound?
Its value is “induction”.

And the “interferon-beta (IFN-β) levels” value (interferon-beta (IFN-β) [2])?
The value was “induction”.

Which GI50 (LN-18) does the source give for C[C@@H](COCCC(=O)N1CCN(c2ncc(C(F)(F)F)cn2)CC1)Nc1cn[nH]c(=O)c1C(F)(F)F [Example 561, 5-[[(2S)-1-(3-oxo-3-[4-[5-(trifluoromethyl)pyrimidin-2-yl]piperazin-1-yl]propoxy)propan-2-yl]amino]-4-(trifluoromethyl)-2,3-dihydropyridazin-3-one] here?
The GI50 was at least 1000 nM.

What about the GI50 (SNU-840) of the same compound?
The GI50 was at least 1000 nM.

What about the tumor growth [3] of the same compound?
Its tumor growth is “significantly reduces tumor growth”.
